Data: patent US20240058387A1, “CULTURE MEDIUM COMPOSITION FOR AMPLIFYING AND MAINTAINING SELF-RENEWAL CAPACITY AND DIFFERENTIATION POTENTIAL OF HSCS AND APPLICATION THEREOF” (EDIGENE (GUANGZHOU) INC., priority 2020, published 2024)

System: mobilized peripheral blood-derived CD34+ cells
Assay: Cell counting: absolute number of marker-positive cells, comparison with UM171 and SR1
Type: cell-based, human
Conditions: FIG. 5B; 8 days; AG1296 at 1 μM; UM171 concentration not given
Protocol: According to the solubility and required solvent indicated in the instructions of the small molecule inhibitor (see Table 1 for the Cat. number of the small molecule inhibitor), the preparation of the small molecule inhibitor stock solution was carried out. Next, the hematopoietic stem cell medium was prepared: SFEM II medium (stem cell, Cat. number: 09655)+50 ng/ml growth factor Flt-3L (PeProtech, Cat. number: 300-100UG)+50 ng/ml growth factor SCF (PeProtech, Cat. number): 300-07-100UG)+50 ng/ml growth factor TPO (PeProtech, Cat. number: 300-18-100UG)+10 ng/ml interleukin IL-6 (PeProtech, Cat. number: 200-06-20UG)+1% bispecific antibody (HyClone, Cat. No.: sv30010). According to the set concentration gradient of the small molecule inhibitor, the stock solution and the basal medium were used to prepare the medium containing different concentrations of the small molecule inhibitor.
First, the prepared medium was added to a 24-well plate (Corning, Cat. number: 3473), 950 μl per well, and placing it in a carbon dioxide incubator (Thermo, model: 3111) to preheat; resuspending the spare umbilical cord Blood-derived HSCs of Example 1 with SFEM 11+50 ng/ml Flt-3L+50 ng/ml SCF+50 ng/ml TPO+10 ng/ml IL-6+1% bispecific antibody, calculating the medium volume to be added according to 50 μl cell suspension per well and 2*10^5/m1 cell density per well. For example, when the final volume of the cell culture solution per well was 1 ml, the total number of cells per well was 2*10^5 cells calculated according to the cell density per well, and the density of the […] of cell suspension supplemented to each well is 4*10^6/ml. The density of the spare HSCs of Example 1 was adjusted to the calculated density of the cell suspension, and adding it; taking out the preheated medium from the incubator, adding 50 μl of the cell suspension to each well, and after mixing, using the microscope (OLYMPUS, model: CKX53) to observe the cells state, and then putting it into an incubator for culturing.
On the mobilized peripheral blood-derived CD34+ cells sorted in Example 1, the screened-out inhibitor AG1296 and literature-reported (Fares I, et al. Science. 2014; Boitano A E, et al. Science. 2010) inhibitors UM171 and SR1 were compared in the same way as Example 2. Eight days after the induction of the small molecule inhibitor, the expression of LT-HSCs cell surface markers (CD34+CD45+CD90+CD45RA−CD38−) was detected by flow cytometry using the same method as in Example 3. After 8 days of culture, 20 μL of cell suspension was taken into a cell counter (Nexcelom, model: Cellometer K2) and counted, and the absolute numbers of the final CD34+ cells and LT-HSCs on […] were calculated (absolute number of cells=total number of cells*stemness ratio).

Cn1nnc(-c2ccc3c(c2)[nH]c2nc(Cc4ccccc4)nc(NC4CCC(N)CC4)c23)n1 (stereo not shown) [UM171]
absolute number of CD34+ cells: best effect
